Experimental data published in patent US12358927B2, “IRAK4 inhibitor crystal and preparation method therefor” (CHIA TAI TIANQING PHARMACEUTICAL GROUP CO., LTD., priority 2020, dated 2025).
Converted amounts (≈) assume the structure as drawn. “And” between values parts separate entries of the source, which are not always exact repeats. Equal entries are not always repeated. Where two headings read alike, the source gives them in different places.

How the values were obtained:
[1] = Study of approximate solubility in water; format: physicochemical; conditions: room temperature, dissolution determined by the naked eye
Description: About 2.0 mg of samples were weighed and added into 1.5 mL glass vials, water was gradually added using pipetting gun, and the mixture was dissolved by sonication as appropriate. The test was conducted at room temperature and the dissolution was determined by the naked eye, and the approximate solubility results are shown in Table 10.

[2] = Study of hygroscopicity (25° C., 80% relative humidity, 24 h); format: physicochemical; conditions: relative humidity 80%
Excerpt: Calculation: weight gain %=(m3−m2)/(m2−m1)×100%

[3] = Study of solid stability (accelerated conditions, XRPD); format: physicochemical; conditions: 40° C./75% RH 2 and 3 months; 60° C./75% RH 1 and 2 months
Description: The samples were placed at (40° C./75% RH) for 2 months and 3 months and at (60° C./75% RH) for 1 month and 2 months, and the placed samples were characterized by XRPD. The test results were compared with the initial test results of 0 days.

[4] = Equilibrium solubility experiment for biological media and pH buffers; format: physicochemical
Description: The taken samples were centrifuged, the supernatant of the samples was taken and diluted by a proper time after pH was determined, and the concentration of the supernatant was determined by UPLC.
Diluent: acetonitrile:water (1:1)
Mobile phase A: 0.1% aqueous FA solution
Mobile phase B: 0.1% FA ACN/MeOH (1:1) solution
Two parts of control solutions were prepared in parallel, and labeled STD #1 and STD #2, respectively.
The control solution STD #1 was taken and diluted by 1, 5, 10, 100, 1000, 2000 times, and recorded as linear solutions L1, L2, L3, L4, L5 and L6. The sample diluted by 2000 times was recorded as LOQ.

[5] = Study of polycrystalline forms (solution suspension crystallization, XRPD); format: physicochemical; conditions: 13 single or mixed solvents of Table 7, stirred 2 days at 50° C.
Description: Then, samples of the aforementioned suspensions were stirred for 2 days on a constant-temperature heating stirrer at 50° C. The reaction system was cooled to room temperature, filtered and concentrated to remove the solvent, to give samples, and XRPD testing was performed on the samples.

[6] = In vivo pharmacokinetic study in SD rats; conditions: rat, plasma, SD male rats, oral, 30 mg/kg
Description: The test compound was mixed with 5% dimethyl sulfoxide/10% polyoxyethylene stearate/85% aqueous solution, and the mixture was vortexed and sonicated to prepare a 3 mg/mL clear solution for later use. SD male rats aged 7 to 10 weeks were selected and orally administered with a dose of the candidate compound at 30 mg/kg. Whole blood was collected at certain time points, and plasma was separated. The drug concentration was measured by LC-MS/MS, and pharmacokinetic parameters were calculated using Phoenix WinNonlin software (Pharsight, USA).

For `COC(=O)N1CCN([C@H]2CC[C@H](Nc3nc(Nc4cnn(C5CCOCC5)c4)nc4snc(C)c34)CC2)CC1` [Compound of formula (I)], which “Approximate solubility” value [1] is on record?
Its value is less than 1000 µg/mL.

Which “Approximate solubility” value [1] does the source give for `COC(=O)N1CCN([C@H]2CC[C@H](Nc3nc(Nc4cnn(C5CCOCC5)c4)nc4snc(C)c34)CC2)CC1` [Crystalline form A of the compound of formula (II)] here?
Its value is greater than 100000 µg/mL.

And the “Determination result (hygroscopicity)” value [2]?
Its value is “Slightly hygroscopic (0.2% to 2% weight gain)”.

And the “Weight gain % Average value” ([2]; average of two samples)?
Its value is 1.3%.

And the Weight gain % ([2]; single samples No. 1 and 2)?
Its Weight gain % is 1.34% and 1.22%.

What about the “crystal form under all stability conditions” value [3] of the same compound?
Its value is “unchanged”.

What about the “solubility description (Chinese pharmacopoeia)” value (“solubility description” below) ([4]; at pH=4.50) of the same compound?
Its value is “minimally soluble”.

And the “solubility description” value ([4]; at pH=5.00 and FaSSIF)?
Its value is “very slightly soluble”.

And the “solubility description” value ([4]; at pH=6.00 and FeSSIF)?
Its value is “slightly soluble”.

And the “solubility description” value ([4]; at pH=6.80 and pH=7.40)?
Its value is “almost insoluble or insoluble”.

What about the “crystalline form after suspension stirring (XRPD)” value [5] of the same compound?
Its value is “all samples were the crystalline form A of the compound of formula (II)”.

Which results are given for `COC(=O)N1CCN([C@H]2CC[C@H](Nc3nc(Nc4cnn(C5CCOCC5)c4)nc4snc(C)c34)CC2)CC1`?
solubility at 24 h ([4]; aqueous buffer, thermodynamic from solid, pH = 6.00 buffer, 37° C., 24 h, pH (24 h) 5.12, white suspension, read-out: Solubility (mg/mL) _24 hr): 1.3 mg/mL (≈ 2.34 mM); solubility at 24 h ([4]; pH 1.77, simulated gastric fluid, thermodynamic from solid, SGF, 37° C., 24 h, pH (24 h) 1.77, opalescent and opaque, read-out: Solubility (mg/mL) _24 hr): 10.5 mg/mL (≈ 18.9 mM); solubility at 24 h ([4]; pH 2.00 and pH 3.8 buffers, 37 °C, simulated gastric fluid, thermodynamic from solid, at pH=1.00, pH=2.00, pH=3.8, water and SGF, read-out: solubility): > 10 mg/mL; solubility at 24 h ([4]; pH 3.8, aqueous buffer, thermodynamic from solid, pH = 3.80 buffer, 37° C., 24 h, pH (24 h) 2.61, opalescent and opaque, read-out: Solubility (mg/mL) _24 hr): 10.2 mg/mL (≈ 18.4 mM); solubility at 24 h ([4]; pH 4.5, aqueous buffer, thermodynamic from solid, pH = 4.50 buffer, 37° C., 24 h, pH (24 h) 4.12, white suspension, read-out: Solubility (mg/mL) _24 hr): 10.3 mg/mL (≈ 18.5 mM); solubility at 24 h ([4]; pH 4.75, thermodynamic from solid, FeSSIF, 37° C., 24 h, pH (24 h) 4.75, white suspension, read-out: Solubility (mg/mL) _24 hr): 1.32 mg/mL (≈ 2.38 mM); solubility at 24 h ([4]; pH 5.5, aqueous buffer, thermodynamic from solid, pH = 5.50 buffer, 37° C., 24 h, pH (24 h) 5.26, white suspension, read-out: Solubility (mg/mL) _24 hr): 0.31 mg/mL (≈ 0.558 mM); solubility at 24 h ([4]; pH 6.04, thermodynamic from solid, FaSSIF, 37° C., 24 h, pH (24 h) 6.04, white suspension, read-out: Solubility (mg/mL) _24 hr): 0.14 mg/mL (≈ 0.252 mM); solubility at 24 h ([4]; pH 6.8, aqueous buffer, thermodynamic from solid, pH = 6.80 buffer, 37° C., 24 h, pH (24 h) 6.57, white suspension, read-out: Solubility (mg/mL) _24 hr): 0.05 mg/mL (≈ 0.09 mM); solubility at 24 h ([4]; pH 7.4, aqueous buffer, thermodynamic from solid, pH = 7.40 buffer, 37° C., 24 h, pH (24 h) 7.07, white suspension, read-out: Solubility (mg/mL) _24 hr): 0.0012 mg/mL (≈ 0.00216 mM); solubility at 24 h ([4]; simulated gastric fluid, thermodynamic from solid, pH = 1.00 buffer, 37° C., 24 h, pH (24 h) 1.11, opalescent and opaque, read-out: Solubility (mg/mL) _24 hr): 10.5 mg/mL (≈ 18.9 mM); solubility at 24 h ([4]; simulated gastric fluid, thermodynamic from solid, pH = 2.00 buffer, 37° C., 24 h, pH (24 h) 1.90, opalescent and opaque, read-out: Solubility (mg/mL) _24 hr): 10.5 mg/mL (≈ 18.9 mM); solubility at 24 h ([4]; water, pH 2.29, water, thermodynamic from solid, H2O, 37° C., 24 h, pH (24 h) 2.29, opalescent and opaque, read-out: Solubility (mg/mL) _24 hr): 9.12 mg/mL (≈ 16.4 mM); bioavailability ([6]; read-out: Bioavailability F (%)): 62%; AUC(0-t) ([6]; read-out: Area under plasma concentration-time curve AUC0-last): 10.6 µM·h; Cmax ([6]; read-out: Peak concentration Cmax): 1580 nM; Tmax ([6]; read-out: Time to peak Tmax): 3 h
